The text below walks through data of patent US6083959A, “Quinoline derivatives, processes for their preparation and their use as medicaments” (Fujisawa Pharmaceutical Co., Ltd., priority 1996, dated 2000).

Where a name gives a salt, the structure may show the parent alone.

The assay has as its target T1, Bradykinin Receptor (Cavia porcellus, UniProt O70526).
T1 construct: The ileum was removed and homogenized in buffer; from tissue; host or cells: guinea pig (male Hartley strain) ileum, crude membrane
T1 sequence (O70526 1-372): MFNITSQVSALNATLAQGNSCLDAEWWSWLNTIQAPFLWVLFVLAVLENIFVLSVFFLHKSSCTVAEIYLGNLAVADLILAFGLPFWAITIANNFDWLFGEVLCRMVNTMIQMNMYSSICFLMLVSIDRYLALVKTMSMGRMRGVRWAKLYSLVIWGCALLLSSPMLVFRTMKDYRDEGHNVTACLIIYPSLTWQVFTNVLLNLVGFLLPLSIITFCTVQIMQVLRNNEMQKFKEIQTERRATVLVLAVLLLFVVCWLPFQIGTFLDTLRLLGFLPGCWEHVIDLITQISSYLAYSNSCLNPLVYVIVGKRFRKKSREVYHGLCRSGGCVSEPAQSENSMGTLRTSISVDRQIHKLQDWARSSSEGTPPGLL
As to the kind of experiment: ^3 H-Bradykinin Receptor Binding (crude guinea pig ileum membrane). The conditions noted are these: ^3 H-Bradykinin 0.06 nM, room temperature, 60 minutes, read-out: Inhibition of ^3 H-Bradykinin binding IC50. The procedure: ^3 H-Bradykinin Receptor Binding
(a) Crude Ileum Membrane Preparation
Male Hartly strain guinea pigs were sacrificed by decapitation. The ileum was removed and homogenized in buffer (50 mM 2-[[tris(hydroxymethyl)methyl]amino]-1-ethanesulfonic acid (TES), 1 mM 1,10-phenanthroline pH 6.8). The homogenate was centrifuged (1000×g,20 minutes) to remove tissue clumps and the supernatant was centrifuges (100,000×g, 60 minutes) to yield a pellet. The pellet was resuspended in buffer (50 mM TES, 1 mM 1,10-phenanthroline, 140 mg/l bacitracin, 1 mM dithiothreiol, 0.1% bovine serum albumin pH 6.8) and homogenized with a glass-teflon homogenizer to yield suspension which was referred to as crude membrane suspension. The obtained membrane suspension was stored at -80° C. until use.
(b) ^3 H-Bradykinin Binding to the Membrane
The frozen crude membrane suspension was thawed. In binding assays, ^3 H-Bradykinin (0.06 nM) and drug were incubated with 50 μl of the membrane suspension at room temperature for 60 minutes in a final volume of 250 μl. Separation of receptor-bound from free ^3 H-Bradykinin is achieved by immediate filtration under vacuum and washed three times with 5 ml of ice-cold buffer (50 mM Tris-HCl pH 7.5). Non-specific binding was defined as binding in the presence of 0.1 μM Bradykinin. The radioactivity retained on rinsed filters was determined by a liquid-scintillation counter.
What is called IC50 is the midpoint of a concentration-inhibition curve. For `Cc1cc(-n2ccnc2)c2cccc(OCc3c(Cl)ccc(N(C)C(=O)CNC(=O)C=Cc4ccc(C(=O)NCc5ccccn5)cc4)c3Cl)c2n1` [2-(3) (trihydrochloride), 8-[2,6-Dichloro-3-[N-methyl-N-[4-[N-(2-pyridylmethyl)carbamoyl]cinnamoylglycyl]amino]benzyloxy]-4-(imidazol-1-yl)-2-methylquinoline], the IC50 came to 4.5 nM.
The figure for `Cc1cc(-n2ccnc2)c2cccc(OCc3c(Cl)ccc(N(C)C(=O)CNC(=O)Nc4cccc(C(=O)Nc5ccncc5)c4)c3Cl)c2n1` [3 (trihydrochloride), 8-[2,6-dichloro-3-[N-methyl-N-[N'-[3-[N-(4-pyridyl)carbamoyl]phenyl]ureidoacetyl]amino]benzyloxy]-4-(imidazol-1-yl)-2-methylquinoline] is 6.6 nM; for `Cc1cc(-n2cccn2)c2cccc(OCc3c(Cl)ccc(N(C)C(=O)CNC(=O)C=Cc4ccc(C(=O)N(C)C)cc4)c3Cl)c2n1` [11-(4) (dihydrochloride), 8-[2,6-Dichloro-3-[N-methyl-N-[4-(dimethylcarbamoyl)cinnamoylglycyl]amino]benzyloxy]-2-methyl-4-(pyrazol-1-yl)quinoline] it is 3.3 nM.
The figure for `Cc1cc(-n2cncn2)c2cccc(OCc3c(Cl)ccc(N(C)C(=O)CNC(=O)C=Cc4ccc(C(=O)N(C)C)cc4)c3Cl)c2n1` [12 (dihydrochloride), 8-[2,6-Dichloro-3-[N-methyl-N-[4-(dimethylcarbamoyl)cinnamoylglycyl]amino]benzyloxy]-2-methyl-4-(1,2,4-triazol-1-yl)quinoline] is 9.1 nM.
Turning to `CCOC(=O)c1ccc(C=CC(=O)NCC(=O)N(C)c2ccc(Cl)c(COc3cccc4c(-n5ccnc5)cc(C)nc34)c2Cl)cc1` [17-(1), 8-[2,6-Dichloro-3-[N-(4-ethoxycarbonylcinnamoylglycyl)-N-methylamino]benzyloxy]-4-(imidazol-1-yl)-2-methylquinoline], the IC50 turned out to be 3.9 nM.
